Broadly, the inhibition is how much of the control response was suppressed. One may read the Ki as the dissociation constant of the complex between target and ligand, obtained from inhibition or displacement.

SMILES strings stand for the structures.

The source of these data is ChEMBL document CHEMBL1255545, “Synthesis and evaluation of 1,2,4-triazolo[1,5-c]pyrimidine derivatives as A2A receptor-selective antagonists” (Bioorg Med Chem Lett, 2010).

Holding throughout (assay type): cell-based
Assay [1] addresses T1, Adenosine receptor A1 (Homo sapiens) (UniProt P30542).
T1 sequence (whole entry): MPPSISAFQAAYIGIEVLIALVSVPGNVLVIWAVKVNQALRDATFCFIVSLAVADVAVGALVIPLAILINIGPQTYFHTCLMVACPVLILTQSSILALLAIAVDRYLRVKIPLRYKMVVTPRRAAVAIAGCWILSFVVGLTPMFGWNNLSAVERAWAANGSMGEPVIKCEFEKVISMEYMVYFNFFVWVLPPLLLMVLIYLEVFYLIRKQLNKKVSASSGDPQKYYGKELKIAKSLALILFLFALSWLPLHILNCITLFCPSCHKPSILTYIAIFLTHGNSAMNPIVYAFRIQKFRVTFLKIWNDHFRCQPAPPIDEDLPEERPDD
The assay is described as follows: Displacement of [3H]CCPA from human adenosine A1 receptor expressed in CHO cells at 10 uM. Background: Displacement assays read how much labelled ligand stays bound in the presence of the test substance.

Assay [2] has as its target Adenosine receptor A2a (Homo sapiens, UniProt P29274). The assay is described as follows: Displacement of [3H]CGS21680 from human adenosine A2A receptor expressed in HEK293 cells at 10 uM.
Assay [3] deals with T2, Adenosine receptor A3 (Homo sapiens) (UniProt P0DMS8).
T2 sequence (whole entry): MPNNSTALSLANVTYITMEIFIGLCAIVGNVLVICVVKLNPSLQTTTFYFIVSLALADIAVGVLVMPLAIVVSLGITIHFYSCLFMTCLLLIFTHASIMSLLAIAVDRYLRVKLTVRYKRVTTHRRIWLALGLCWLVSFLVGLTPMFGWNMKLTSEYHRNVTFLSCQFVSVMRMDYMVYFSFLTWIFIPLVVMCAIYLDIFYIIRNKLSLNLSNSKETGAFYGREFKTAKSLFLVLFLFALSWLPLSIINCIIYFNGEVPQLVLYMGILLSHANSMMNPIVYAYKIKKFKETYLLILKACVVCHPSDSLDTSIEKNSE
The assay is described as follows: Displacement of [125I]I-AB-MECA from human adenosine A3 receptor expressed in CHO cells at 10 uM.

Assay [4] concerns the target T3, Adenosine receptor A3 (Homo sapiens, UniProt P0DMS8).
T3 sequence (P0DMS8 whole entry): T2 sequence (whole entry)
The experiment in a line: Displacement of [125I]I-AB-MECA from human adenosine A3 receptor expressed in CHO cells.

Chain of Adenosine receptor A2a (P29274 whole entry): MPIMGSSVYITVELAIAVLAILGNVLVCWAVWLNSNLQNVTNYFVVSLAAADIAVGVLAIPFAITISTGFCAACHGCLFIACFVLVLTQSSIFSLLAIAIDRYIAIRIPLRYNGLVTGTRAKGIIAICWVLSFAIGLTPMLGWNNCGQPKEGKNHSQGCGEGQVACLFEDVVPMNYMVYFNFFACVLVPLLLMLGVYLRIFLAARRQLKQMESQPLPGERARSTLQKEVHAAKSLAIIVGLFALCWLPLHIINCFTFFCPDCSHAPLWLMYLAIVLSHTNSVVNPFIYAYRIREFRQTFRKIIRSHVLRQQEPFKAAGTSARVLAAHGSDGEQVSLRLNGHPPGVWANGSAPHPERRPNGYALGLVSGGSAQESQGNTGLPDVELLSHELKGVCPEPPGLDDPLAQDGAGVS

For `Nc1nc2c(cnn2CCCc2ccc(O/C=C/c3ccccc3)cc2)c2nc(-c3ccco3)nn12`, the inhibition in assay [1] worked out at 7.3%; in assay [3], 17.8%. In assay [2], this compound displayed a Ki of 308 nM.

For the compound `Nc1nc2c(cnn2CCCc2ccc(OCCc3ccccc3)cc2)c2nc(-c3ccco3)nn12`, the inhibition was 6.9% in assay [1] and 18.2% in assay [3]. The same compound gave a Ki in assay [2] of 78.9 nM.

On to `CS(=O)(=O)OCCOc1ccc(CCCn2ncc3c2nc(N)n2nc(-c4ccco4)nc32)cc1`, for which the values for the inhibition in assay [1] and in assay [3] were 27.8% and 62.4%, respectively. Moreover, the affinity in assay [2], expressed as Ki, was 45.7 nM.

Consider `CC(C)Oc1ccc(CCCn2ncc3c2nc(N)n2nc(-c4ccco4)nc32)cc1`, for which the inhibition in assay [1] worked out at 35%; in assay [3], 72.8%. This compound displayed a Ki in assay [2] of 13.3 nM.

For `Nc1nc2c(cnn2CCCc2ccc(OCCO)cc2)c2nc(-c3ccco3)nn12`, the inhibition in assay [1] was found to be 47.9%; in assay [3], 57.8%. The Ki in assay [2] is 23.9 nM.

With `C=CCCOc1ccc(CCCn2ncc3c2nc(N)n2nc(-c4ccco4)nc32)cc1`, the inhibition in assay [1] worked out at 25.5%; in assay [3], 44.8%. The compound further displayed a Ki in assay [2] of 14.4 nM.

`Nc1nc2c(cnn2CCCc2ccc(OCCF)cc2)c2nc(-c3ccco3)nn12`: the inhibition in assay [1] was found to be 42.7%; in assay [3], 59.6%. In assay [2], this compound registered a Ki of 12.4 nM.

As to `CCC(C)Oc1ccc(CCCn2ncc3c2nc(N)n2nc(-c4ccco4)nc32)cc1` (stereo not drawn), the inhibition in assay [1] was determined as 16.8%; in assay [3] it was 41.9%. This compound also showed a Ki in assay [2] of 22.1 nM.

As to `Nc1nc2c(cnn2CCCc2ccc(O)cc2)c2nc(-c3ccco3)nn12`, the inhibition in assay [1] was 44.3%; in assay [3], 34.2%. The Ki in assay [2] amounted to 48.3 nM.

On to `C=CCOc1ccc(CCCn2ncc3c2nc(N)n2nc(-c4ccco4)nc32)cc1`, for which the inhibition in assay [1] was determined as 32.8%; in assay [3], 62.5%. In assay [2], this compound came in with a Ki of 9 nM.

Take `CCOc1ccc(CCCn2ncc3c2nc(N)n2nc(-c4ccco4)nc32)cc1`: the inhibition in assay [1] came to 4.8%. The Ki worked out at 43.9 nM in assay [2] and 4940 nM in assay [4].

As for `COc1ccc(CCCn2ncc3c2nc(N)n2nc(-c4ccco4)nc32)cc1`, the inhibition in assay [1] worked out at 38.4%; in assay [3], 67.4%.

Turning to `CCCOc1ccc(CCCn2ncc3c2nc(N)n2nc(-c4ccco4)nc32)cc1`, the inhibition came to 17.9% in assay [1] and 36.5% in assay [3]. In assay [2], the affinity, expressed as Ki, was 11.7 nM.
